Reference: US20040023998A1, “Novel crystals of 1,3,4-oxadiazole derivatives, process for producing the crystals and medicines containing the same as the active ingredient” (priority 2000, published 2004)
In brackets after ≈: the same amount, converted by molar mass.

Tests used:
[1] = From the text: Moreover, for removing tetrahydrofuran in this Type-1 crystals and obtaining Type-1 crystals, it is necessary to reflux them in ethanol.
[2] = Stability test (storage of solid, residual ratio by HPLC); type: physicochemical; conditions: all storage conditions of Table 6
Method: The compound of the present invention (about 50 mg) was weighed in a test tube and stored under the following conditions. The stored sample was analyzed using high performance liquid chromatography (HPLC) to calculate its residual ratio by the internal standard method.
Condition 1: 60° C., sealed, 1 month;
Condition 2: 40° C., open, 75%RH (relative humidity), 3 months;
Condition 3: 40° C., sealed, 6 months;
Condition 4: 25° C., open, 60%RH (relative humidity), 12 months;
Condition 5: 5° C., sealed, 12 months;
The HPLC measurement was carried out under the same conditions as in Example 2 described above.

[3] = Solubility of compound of the present invention in various solvents (saturated solution, HPLC); type: physicochemical
Method: The compound of the present invention was added to various solvents so that a saturated state was achieved. Each mixture was stirred for 30 seconds by means of a laboratory mixer and then allowed to stand for 4 minutes and 30 seconds. The stirring and standing operations were repeated seven times. The mixture was centrifuged at 3000 rpm for 15 minutes and isoamyl 4-hydroxybenzoate was added as an internal standard to the resulting supernatant. Furthermore, acetonitrile was added to the supernatant to form a sample solution. A portion (8 μL) of each solution was analyzed using high performance liquid chromatography (HPLC) under the following conditions to determine its concentration by the internal standard method, and thereby solubility was calculated. Additionally, pH at the dissolution was measured.
HPLC measuring conditions
Eluent: 20 mmol/L aqueous potassium dihydrogen phosphate solution (pH 8.0, sodium hydroxide)/acetonitrile=65/35
As the buffer (buffer solution) in Table 5, Briton-Robinson Buffer having an ionic strength of 0.2 was used.

Stability (conclusion from Table 6) [2]	solubility at 35 min ([3]; aqueous buffer, thermodynamic from solid, Buffer pH 3.0 (Briton-Robinson, ionic strength 0.2), pH at dissolution 3.0)	solubility at 35 min ([3]; aqueous buffer, thermodynamic from solid, Buffer pH 5.0 (Briton-Robinson, ionic strength 0.2), pH at dissolution 5.0)	solubility at 35 min ([3]; aqueous buffer, thermodynamic from solid, Buffer pH 7.0 (Briton-Robinson, ionic strength 0.2), pH at dissolution 7.0)	solubility at 35 min ([3]; aqueous buffer, thermodynamic from solid, Buffer pH 9.0 (Briton-Robinson, ionic strength 0.2), pH at dissolution 8.6)	solubility at 35 min ([3]; organic solvent or mixture, thermodynamic from solid, solvent: Acetonitrile)	solubility at 35 min ([3]; organic solvent or mixture, thermodynamic from solid, solvent: Ethanol)	solubility at 35 min ([3]; organic solvent or mixture, thermodynamic from solid, solvent: Methanol)	solubility at 35 min ([3]; organic solvent or mixture, thermodynamic from solid, solvent: Octanol)	solubility at 35 min ([3]; pH 7.3, thermodynamic from solid, solvent: Purified water, pH at dissolution 7.3)	Compound	Stability of the form in water [1]	Toxicity (Toxicity)
–	–	–	–	–	–	–	–	–	–	CC(C)C(NC(=O)Cn1c(-c2ccccc2)ncc(N)c1=O)C(=O)c1nnc(C(C)(C)C)o1 (racemic) [Type-1 crystals, 2-[5-Amino-6-oxo-2-phenyl-1,6-dihydro-1-pyrimidyl]-N-[1-(2-[5-t-butyl-1,3,4-oxadiazolyl]carbonyl)-2-(R,S)-methylpropyl]acetamide, reference compound]	promptly results in precipitation of Type-2 crystals	–
sufficiently stable	122 µg/mL (≈ 270 µM)	104 µg/mL (≈ 230 µM)	94 µg/mL (≈ 208 µM)	45 µg/mL (≈ 99.4 µM)	19100 µg/mL (≈ 42200 µM)	7290 µg/mL (≈ 16100 µM)	33600 µg/mL (≈ 74300 µM)	710 µg/mL (≈ 1570 µM)	73 µg/mL (≈ 161 µM)	CC(C)C(NC(=O)Cn1c(-c2ccccc2)ncc(N)c1=O)C(=O)c1nnc(C(C)(C)C)o1 (racemic) [compound of the present invention, 2-[5-amino-6-oxo-2-phenyl-1,6-dihydro-1-pyrimidyl]-N-[1-(2-[5-t-butyl-1,3,4-oxadiazolyl]carbonyl)-2-(R,S)-methylpropyl]acetamide]	–	sufficiently low toxicity
